Source: PubChem BioAssay (NCI)
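Interpolation was linear, between the two tested concentrations surrounding the appropriate level; five concentrations were tested over 48 hours in 96-well plates. TGI: total growth inhibition.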

Legend:
Test in all cases: NCI-60 cell line screen, 48 h
CAKI-1 renal = tested on: CAKI-1 renal
SK-OV-3 ovarian = tested on: SK-OV-3 ovarian
K-562 leukemia = tested on: K-562 leukemia
SK-MEL-2 melanoma = tested on: SK-MEL-2 melanoma
HCC-2998 colon = tested on: HCC-2998 colon
OVCAR-5 ovarian = tested on: OVCAR-5 ovarian
SN12C renal = tested on: SN12C renal
MDA-MB-435 = tested on: MDA-MB-435
SK-MEL-28 melanoma = tested on: SK-MEL-28 melanoma
786-0 renal = tested on: 786-0 renal
OVCAR-4 ovarian = tested on: OVCAR-4 ovarian
MOLT-4 leukemia = tested on: MOLT-4 leukemia
SF-539 CNS = tested on: SF-539 CNS
MDA-N = tested on: MDA-N
HS 578T breast = tested on: HS 578T breast
CCRF-CEM leukemia = tested on: CCRF-CEM leukemia
TK-10 renal = tested on: TK-10 renal
HCT-15 colon = tested on: HCT-15 colon
HT29 colon = tested on: HT29 colon
A549 NSCLC = tested on: A549 NSCLC

SMILES	TGI (CAKI-1 renal)	TGI (SK-OV-3 ovarian)	TGI (K-562 leukemia)	TGI (SK-MEL-2 melanoma)	TGI (HCC-2998 colon)	TGI (OVCAR-5 ovarian)	TGI (SN12C renal)	TGI (MDA-MB-435)	TGI (SK-MEL-28 melanoma)	TGI (786-0 renal)	TGI (OVCAR-4 ovarian)	TGI (MOLT-4 leukemia)	TGI (SF-539 CNS)	TGI (MDA-N)	TGI (HS 578T breast)	TGI (CCRF-CEM leukemia)	TGI (TK-10 renal)	TGI (HCT-15 colon)	TGI (HT29 colon)	TGI (A549 NSCLC)
O/N=C1/CCCc2nonc21	> 100 µM	> 100 µM	> 100 µM	> 100 µM	> 100 µM	> 100 µM	> 100 µM	> 100 µM	> 100 µM	> 100 µM	> 100 µM	> 100 µM	> 100 µM	> 100 µM	> 100 µM	> 100 µM	> 100 µM	> 100 µM	> 100 µM	> 100 µM
CNC(=O)CCCNC(=O)CCCC(=O)OC	> 100 µM	> 100 µM	> 100 µM	> 100 µM	> 100 µM	> 100 µM	> 100 µM	> 100 µM	> 100 µM	> 100 µM		> 100 µM	> 100 µM	> 100 µM	> 100 µM	> 100 µM	> 100 µM	> 100 µM	> 100 µM	> 100 µM
C=C(C)CCC1CC=[N+]([O-])OC1C(C)(C)C (stereo unspecified)	75.3 µM	> 100 µM	> 100 µM		> 100 µM	> 100 µM	> 100 µM	40.7 µM		> 100 µM		> 100 µM	> 100 µM	> 100 µM	> 100 µM	50.5 µM	> 100 µM	> 100 µM	> 100 µM	51.4 µM
O=c1cc(CNC2CC3CCC2C3)[nH]c(=O)[nH]1 (stereo unspecified)	> 100 µM	> 100 µM	> 100 µM	> 100 µM	> 100 µM	> 100 µM	> 100 µM	> 100 µM	> 100 µM	> 100 µM	> 100 µM	> 100 µM	> 100 µM	> 100 µM	> 100 µM	> 100 µM	> 100 µM	> 100 µM	> 100 µM	> 100 µM
O=C(/C=C(\Nc1ccccc1O)c1ccc(Br)cc1)C(Cl)(Cl)Cl	20.7 µM	16 µM	32.5 µM	20.7 µM	5.88 µM	24.5 µM	20 µM	21.8 µM	24.6 µM	27.6 µM	19.2 µM	33.7 µM	27.1 µM	17.3 µM	18.1 µM	36.7 µM	19.1 µM	25.9 µM	20.8 µM	12.4 µM
S=C(N/N=C/c1ccccn1)N1CCCCCC1			> 100 µM	24.8 µM	> 38.1 µM	> 54.2 µM	0.359 µM	96.8 µM	> 100 µM	1.22 µM	37 µM		0.305 µM	> 48.9 µM	> 100 µM	0.393 µM	38 µM	> 33.5 µM	> 44.2 µM	29.1 µM
Nc1ccc(-c2nc3ccc(F)cc3s2)cc1I	> 100 µM	> 100 µM	> 100 µM	> 100 µM	> 100 µM	> 100 µM	> 100 µM	> 100 µM	> 100 µM	> 100 µM		> 100 µM	> 100 µM	> 100 µM	> 100 µM	> 100 µM		> 100 µM	> 100 µM	> 100 µM
COc1cc(C(=O)O)c(-c2cc3c(cc2C=O)OCO3)c(OC)c1OC	> 10 µM	> 10 µM	> 10 µM		> 10 µM		> 10 µM	> 10 µM	> 10 µM	> 10 µM	> 10 µM	> 10 µM	> 10 µM	> 10 µM	> 10 µM	> 10 µM	> 10 µM	> 10 µM	> 10 µM	> 10 µM
Nc1c(Cl)cc(-c2nc3ccccc3s2)cc1Cl		> 100 µM	> 100 µM	> 100 µM	> 100 µM		> 100 µM	> 100 µM	> 100 µM	> 100 µM		> 100 µM	> 100 µM	> 100 µM	> 100 µM	> 100 µM	> 100 µM	> 100 µM	> 100 µM	> 100 µM
COC(=O)[C@@]1(NC(=O)C(CC(=O)OC(C)(C)C)NC(=O)OC(C)(C)C)C[C@H]1C (stereo partly specified)	> 100 µM	> 100 µM	> 100 µM	> 100 µM	> 100 µM	> 100 µM	> 100 µM	> 100 µM	> 100 µM	> 100 µM	> 100 µM	> 100 µM	> 100 µM	> 100 µM	> 100 µM	> 100 µM	> 100 µM	> 100 µM	> 100 µM	> 100 µM
O=C1C=C(C2=C(C3=CC(=O)c4ccccc4C3=O)C(=O)c3ccccc3C2=O)C(=O)c2ccccc21	11.7 µM	66.5 µM	> 39.5 µM	42.4 µM	43.1 µM	25.6 µM	16.5 µM	6.28 µM	29.8 µM	12.6 µM	17 µM	2.27 µM	21.7 µM	5.65 µM	40 µM	1.43 µM	21.8 µM	28.9 µM	12.5 µM	27 µM
O=[N+]([O-])C(=C/c1cccc2ccccc12)/C(=C\c1cccc2ccccc12)[N+](=O)[O-]	4.68 µM	19.1 µM	> 25.9 µM	55.3 µM	5.41 µM	12.3 µM	6.55 µM	6.12 µM	4.05 µM	3.72 µM	7.06 µM	8.59 µM	5.63 µM	8.25 µM	17.1 µM	4.77 µM	4.65 µM	3.95 µM	5.13 µM	> 58.6 µM
